Measurements: patent US20240358711A1, “COMPOUNDS FOR NEUTROPHIL ROS INHIBITION” (IMMUNYX PHARMA LTD., priority 2021, published 2024)
Where a name gives a salt, the structure may show the parent alone. Read-outs that look alike come from different tables or passages of the source.

What was measured:
human neutrophils [1] = experiment: ROS production by PMA-stimulated purified human neutrophils; format: cell-based; settings: for ROS production in the presence of PMA: 10 uM concentration; for ROS production in the presence of PMA / IC50 / <90% ROS Inhibition: human neutrophils; for IC50 / <90% ROS Inhibition: PMA stimulated, average of several experiments; for IC50: read-out: ROS Inhibition IC50; for ROS inhibitor effectiveness over 100 nm to 10 uM: PMA stimulated human neutrophils; for <90% ROS Inhibition: concentration
Procedure: Following blood withdrawal, blood was overlaid on 3% dextran in 0.9% NaCl in a 1:1 ratio and left at RT for 25 min to allow erythrocyte sedimentation. Residual RBCs were lysed by adding water for 30 sec and stopped by adding 2.5% BSA/5×PBS. WBCs were then diluted in 0.5% BSA/1×PBS and total number of cells was counted. Purification of pure neutrophils (HDNs) was done by overlaying blood after RBC sedimentation in a 1:1 ratio on Histopaque-1077. After 30 min centrifugation at 400 g, pure neutrophils were found at the bottom of the tube (pellet). Mononuclear cells (LDF—low density fraction) settle between the Histopaque-1077 and the 0.9% saline.
(§1) A high-throughput screen was performed to find molecules that inhibit ROS production by neutrophils. Extracted human neutrophils were purified and kept in culture. The cells were then exposed to various drugs and ROS production was monitored over time. Compounds that also scavenged hydrogen peroxide (H2O2) and/or lowered neutrophil ATP levels (reflecting toxicity) were removed. The top hits from the screen were selected for further analysis.
Neutrophils not exposed to PMA were used as a negative control and neutrophils exposed to only PMA were used as a positive control.
(§2) PMA was again used to stimulate ROS production in neutrophils and the effects of the drugs were monitored at increasing concentration levels.

mouse neutrophils = experiment: ROS inhibition in mouse neutrophils; format: cell-based; settings: average of several experiments; for <90% ROS Inhibition: concentration
Excerpt: as §2

[2] = system: neutrophils isolated from blood; experiment: Neutrophil survival by FACS (Annexin V and PI double positive = dead); format: cell-based; settings: 2 hours culture, drugs at 1 uM
Procedure: To test this hypothesis, neutrophils isolated from blood were cultured with the various drugs (concentration 1 uM) for 2 hours and then neutrophil survival was monitored by FACS. Cells that were double positive for Anexin V staining and PI staining were considered dead.

human neutrophils [3] = experiment: High-throughput screen for molecules that inhibit ROS production by neutrophils (PMA and fMLP stimulation); format: cell-based
Procedure: as §1, with “analysis. 160 basal hits were tested for their ability to inhibit neutrophil ROS production. 64 molecules were able to inhibit ROS production in the presence of PMA activation. 67 molecules were able to inhibit ROS production in the presence of N-Formylmethionine-leucyl-phenylalanine (fMLP). Of those 47 molecules were able to inhibit ROS production by both stimulation methods.” for “analysis.”

[4] = system: whole blood samples from healthy human subjects; experiment: ROS levels in whole blood samples from healthy human subjects, without or with PMA; format: cell-based; settings: for reduction in ROS in whole blood treated with PMA: higher dose (5 uM)
Procedure: A high and low concentration were tested for each compound. […] Next, the compounds were tested on whole blood treated with PMA.

LPS treated mice = experiment: ROS in the lungs of LPS treated mice (lung inflammation model); format: in vivo, mouse
Procedure: (5B) Bar graph of relative ROS levels in the lungs of LPS treated mice, LPS treated mice administered free Stelazine, Stelazine loaded naked liposomes and Stelazine loaded targeting-peptide decorated liposomes. (5C) Images of ROS levels in LPS treated lungs administered various compositions of Stelazine and/or naked or peptide-decorated liposomes (referred to as “TENN”). 4 hours following treatment with the described molecules, animals were injected with luminol and ROS in the lungs was quantified using IVIS.
Mice were given 150 ug LPS by inhalation and left for 2 days. […] The LPS was inhaled on Day 0, and then the dosing of the drugs was performed in the evening of day 1 and the morning of day 2. Three different formulations of Stelazine were tested by IV administration: free Stelazine administered in PBS, Stelazine loaded into liposomes in PBS, and Stelazine loaded into liposomes decorated with neutrophil targeting peptides in PBS.

[5] = Circulating ALT levels in mice after drug administration; format: in vivo, mouse; settings: 48 hours after drug administration
Procedure: One of the benefits of targeting of these drugs directly to neutrophils is to decrease their unwanted side effects. As mentioned early, many of these compounds have known side effects with respect to neutrophil differentiation in the bone marrow. Targeting to mature neutrophils decreases this unwanted side effect. To test if side effects are indeed decreased liver enzyme levels were measured in the mice after administration of free Stelazine and neutrophil targeted Stelazine. […] It is thus clear that neutrophil targeting is particularly beneficial for the selected compounds.

SMILES	IC50 (human neutrophils [1]; Neutrophil)	IC50 (mouse neutrophils; Neutrophil)	ROS production in the presence of PMA (human neutrophils [1])	<90% ROS Inhibition (human neutrophils [1])	<90% ROS Inhibition (mouse neutrophils)	also measured
CCCCCCCCCCCCCC(=O)O[C@@H]1[C@@H](C)[C@@]2(O)[C@@H](C=C(CO)C[C@]3(O)C(=O)C(C)=C[C@@H]23)[C@@H]2C(C)(C)[C@]12OC(C)=O [PMA, Phorbol 12-myristate 13-acetate]						increase in cell death as compared to control [2]: ~50%
CN(C)CCC=C1c2ccccc2CCc2ccccc21 [Amitriptyline]						ROS inhibition in the screen (human neutrophils [3]): inhibited ROS production
CN(C)CCCN1c2ccccc2CCc2ccc(Cl)cc21 [Clomipramine]			more effective	5 µM	7 µM	ROS inhibitor effectiveness over 100 nm to 10 uM (human neutrophils [1]): most effective ROS inhibitors; ROS inhibition in whole blood treated with PMA ([4]; 5 uM): less strong effect; reduction in ROS in whole blood treated with PMA [4]: > 50%
CN(C)C(=O)c1cc2cnc(Nc3ccc(N4CCNCC4)cn3)nc2n1C1CCCC1 [Ribociclib]			more modest reduction			
COC(=O)C1=C(C)NC(C)=C(C(=O)OCC(C)C)C1c1ccccc1[N+](=O)[O-] (centres unmarked) [Nisoldipine]			more modest reduction			
CC(C)(C)C(=O)/C(=C\c1cccc([N+](=O)[O-])c1)n1cncn1 [Nexinhib]				5 µM		IC50 (human neutrophils [1]): 1500 nM; ROS inhibition in whole blood treated with PMA ([4]; 5 uM): less strong effect; reduction in ROS in whole blood treated with PMA [4]: > 50%; IC50 (mouse neutrophils): 8000 nM
CC(C)(C)C(=O)Oc1ccc(S(=O)(=O)Nc2ccccc2C(=O)NCC(=O)O)cc1 [Sivelestat]						increase in cell death as compared to control [2]: < 6%
CC(=O)c1c(C)c2cnc(Nc3ccc(N4CCNCC4)cn3)nc2n(C2CCCC2)c1=O [Palbociclib]			strongly reduced ROS production			

More lines, main results first:

IC50 (human neutrophils [1]; Neutrophil)	IC50 (mouse neutrophils; Neutrophil)	SMILES	ROS production in the presence of PMA (human neutrophils [1])	<90% ROS Inhibition (human neutrophils [1])	<90% ROS Inhibition (mouse neutrophils)	also measured
1000 nM	1500 nM	CCN1CCN(Cc2ccc(Nc3ncc(F)c(-c4cc(F)c5nc(C)n(C(C)C)c5c4)n3)nc2)CC1 [Abemaciclib]	more effective	2 µM	5 µM	ROS inhibitor effectiveness over 100 nm to 10 uM (human neutrophils [1]): most effective ROS inhibitors
4000 nM		CN(C)C/C=C/C(=O)Nc1cc2c(Nc3ccc(F)c(Cl)c3)ncnc2cc1O[C@H]1CCOC1 [Afatinib]	more modest reduction	9 µM		
	2500 nM	CN(C)C/C=C/C(=O)Nc1cc2c(Nc3ccc(F)c(Cl)c3)ncnc2cc1O[C@H]1CCOC1 [Afatanib Maleate, Afatinib Maleate]			8 µM	
1000 nM	2500 nM	CN1CCN(CCCN2c3ccccc3Sc3ccc(C(F)(F)F)cc32)CC1 [Stelazine, Trifluoperazine]	more effective	4 µM	4 µM	ROS inhibitor effectiveness over 100 nm to 10 uM (human neutrophils [1]): most effective ROS inhibitors; ROS levels in LPS treated lungs, luminol/IVIS imaging (LPS treated mice; 4 hours following treatment): had an effect on ROS levels; reduction in ROS in the lungs as compared to the untreated control (LPS treated mice; IV, 48 hours after LPS administration): ~50%; alanine aminotransferase (ALT) levels in the blood [5]: increased alanine aminotransferase (ALT) levels in the blood
200 nM	150 nM	COc1cc(Nc2c(C#N)cnc3cc(OCCCN4CCN(C)CC4)c(OC)cc23)c(Cl)cc1Cl [Bosutinib]	more effective	0.75 µM	1.5 µM	ROS inhibitor effectiveness over 100 nm to 10 uM (human neutrophils [1]): most effective ROS inhibitors; ROS inhibition in whole blood treated with PMA ([4]; 1 uM): this inhibition was quickly lost; ROS inhibition in whole blood treated with PMA ([4]; 5 uM): highly effective at ROS inhibition
2500 nM	2000 nM	CCCCOc1ccc(C(=O)CCN2CCCCC2)cc1 [Dyclonine]		7 µM	5 µM	ROS levels relative to unstimulated neutrophils (human neutrophils [1]; 10 μM): 44 % of negative control cells
